Test results taken from the NIST ThermoML archive (doi:10.1016/j.tca.2009.03.004).
± gives the expanded uncertainty stated by the source.

What was measured:
[1] = DTA
[2] = Molar enthalpy of transition or fusion; conditions: DSC

Structure (SMILES)	Triple point temperature ([1]; Crystal) [K]	Triple point temperature ([1]; Nematic liquid crystal) [K]	Molar enthalpy of transition or fusion ([2]; Crystal) [kcal/mol]	Molar enthalpy of transition or fusion ([2]; Nematic liquid crystal) [kcal/mol]
CCCCCCCCOc1ccc(C=Nc2ccc(OCCCC)cc2)cc1 [benzenamine, 4-butoxy-N-[[4-(octyloxy)phenyl]methylene]-]	380.75 ± 0.5	389.55 ± 0.5	10.6 ± 0.287	0.43 ± 0.0359
CCCCCCCCOc1ccc(C=Nc2ccc(OCC)cc2)cc1 [4-ethoxy-N-[[4-(octyloxy)phenyl]methylene]benzenamine]	373.95 ± 0.5	395.55 ± 0.5	9.66 ± 0.263	0.268 ± 0.0311
